Data: PMC9452538, “The antimicrobial peptide LI14 combats multidrug-resistant bacterial infections” (Communications Biology, 2022)
Converted amounts (≈) assume the structure as drawn. Like-named read-outs stand apart in the source and are kept apart here. Bridge positions count the residues as written; N and C are the ends. Peptide text beside a SMILES is read from it.

Key:
MRSA T144 [1] = format: cell-based, Staphylococcus aureus
Experimental: (§1) MRSA T144 and E. coli B2 in the exponential growth phase were incubated with LI14 peptide supplemented with 10 mM Na^+, K^+, Mg^2+, 10% Dulbecco’s modified Eagle medium (DMEM), and 10% fetal bovine serum (FBS) for 16–18 h. The stability of LI14 was evaluated by the change of its antibacterial activity under different conditions.
(§2) LI14 were preincubated for 1 h at various temperatures (40–121 °C), pH (2–12), and proteases (pepsin, trypsin, and papain, final concentration 1 mg/mL). […] Following the incubation with the proteases, the leftover protease was precipitated with acetonitrile and removed by centrifugation at 3000 × g, followed by a MIC test.
(§3) Supplementary Table 4 Thermal, pH, salts and protease stability of AMPs against
(§4) MRSA T144 and E. coli B2 (MIC, μg/mL).
(§5) Treatment MRSA T144 E. coli B2

E. coli B2 = format: cell-based, Escherichia coli
Experimental: as §1, §2, §3, §4, §5

[2] = system: K. pneumoniae D120 (mcr-8); experiment: microbe, parasite or virus in culture; format: cell-based, Klebsiella pneumoniae
Experimental: (§6) An antimicrobial activity study was conducted on all peptides against a panel of laboratory bacteria, including ATCC source and clinical isolates with resistance determinants. According to CLSI2021 guidelines, we tested the minimum inhibitory concentrations (MICs) of peptides using standard broth micro-dilutions. Briefly, bacteria grown to exponential phase were diluted in 1:1000 to MHB, subsequently, equivalent amounts of bacterial suspension (1.5 × 10^6 CFUs/mL) were mixed with different concentrations of peptides in a sterilized 96-well microtiter plate (Corning).

[3] = system: K. pneumoniae ATCC 700603; experiment: microbe, parasite or virus in culture; format: cell-based, Klebsiella pneumoniae
Experimental: as §6

E. faecium 5F-10 = experiment: microbe, parasite or virus in culture; format: cell-based, Enterococcus faecium
Experimental: as §6

[4] = system: P. cibarius HNCF44W (blaNDM-1 + tet(X6)); experiment: organism not typed; format: cell-based
Experimental: as §6

E. faecalis 1F-1 = experiment: microbe, parasite or virus in culture; format: cell-based
Experimental: as §6

[5] = system: S. enteritidis ATCC 13076; experiment: microbe, parasite or virus in culture; format: cell-based
Experimental: as §6

[6] = system: E. faecalis A4 (VRE, VanA); experiment: microbe, parasite or virus in culture; format: cell-based
Experimental: as §6

S. aureus ATCC 29213 = experiment: microbe, parasite or virus in culture; format: cell-based, Staphylococcus aureus; design: Antibacterial activity of LI14 derivates: unit not given here
Experimental: as §6

MRSA T144 [7] = experiment: microbe, parasite or virus in culture; format: cell-based, Staphylococcus aureus; design: Antibacterial activity of LI14 derivates: unit not given here
Experimental: as §6

P. aeruginosa PA14 = experiment: microbe, parasite or virus in culture; format: cell-based, Pseudomonas aeruginosa
Experimental: as §6

E. coli CP131 (mcr-3) = experiment: microbe, parasite or virus in culture; format: cell-based, Escherichia coli
Experimental: as §6

E. coli G6 (blaNDM-5) = experiment: microbe, parasite or virus in culture; format: cell-based, Escherichia coli
Experimental: as §6

E. coli G92 (mcr-1) = experiment: microbe, parasite or virus in culture; format: cell-based, Escherichia coli
Experimental: as §6

E. coli 1F28 (tet(X4)) = experiment: microbe, parasite or virus in culture; format: cell-based, Escherichia coli
Experimental: as §6

E. coli B3-1 (tet(X4)) = experiment: microbe, parasite or virus in culture; format: cell-based, Escherichia coli
Experimental: as §6

E. coli C3 (blaNDM-1) = experiment: microbe, parasite or virus in culture; format: cell-based, Escherichia coli
Experimental: as §6

MRSA 1518 = experiment: microbe, parasite or virus in culture; format: cell-based, Staphylococcus aureus
Experimental: as §6

MRSA 1530 = experiment: microbe, parasite or virus in culture; format: cell-based, Staphylococcus aureus
Experimental: as §6

A. baumannii ATCC 19609 = experiment: microbe, parasite or virus in culture; format: cell-based, Acinetobacter baumannii
Experimental: as §6

[8] = system: A. baumannii C222 (tet(X6)); experiment: microbe, parasite or virus in culture; format: cell-based, Acinetobacter baumannii
Experimental: as §6

E. coli ATCC 25922 = experiment: microbe, parasite or virus in culture; format: cell-based, Escherichia coli; design: Antibacterial activity of LI14 derivates: unit not given here
Experimental: as §6

[9] = system: E. coli B2 (blaNDM-5 + mcr-1); experiment: microbe, parasite or virus in culture; format: cell-based, Escherichia coli; design: Antibacterial activity of LI14 derivates: unit not given here
Experimental: as §6

E. coli DH5α (PUC19) = experiment: MIC broth microdilution; format: cell-based, Escherichia coli; details: engineered E. coli DH5α (PUC19); MHB, 16-18 h, 37 °C
Experimental: as §6

[10] = system: E. coli DH5α (PUC19-mcr-1); experiment: MIC broth microdilution; format: cell-based, Escherichia coli; details: engineered E. coli DH5α (PUC19-mcr-1); MHB, 16-18 h, 37 °C
Experimental: as §6

MDR E. coli B2 = experiment: Checkerboard assay with LI14; format: cell-based, Escherichia coli
Experimental: Through checkerboard assay using two-fold serially diluted drugs (8 × 8 matrix), we evaluated the synergistic effects of LI14 with different mechanisms of antibiotics. The absorbance of cultures at 600 nm was determined by a Microplate reader after 18 h of incubation with (1.5 × 10^6 CFUs/mL) bacterial suspension. The FIC index (FICI) was calculated by performing two biological replicates for each combination. The formula is as follows: FIC index = FICIa + FICIb = MICab/MICa + MICba/Mb. An FIC index of ≤0.5 indicates synergy.
a/bMICs of antibiotics in the absence or presence of ¼ MIC of LI14.
cDegree of antibiotics potentiation in the presence of ¼ MIC of LI14.
–, none of potentiation activity.

[11] = system: S. aureus 215 (cfr + LZD^R); experiment: MIC broth microdilution; format: cell-based, Staphylococcus aureus; details: S. aureus 215 (cfr + LZD^R); MHB, 16-18 h, 37 °C
Experimental: as §6

S. aureus G16 (RIF^R) = experiment: MIC broth microdilution; format: cell-based, Staphylococcus aureus; details: S. aureus G16 (RIF^R); MHB, 16-18 h, 37 °C
Experimental: as §6

CC[C@H](C)[C@H](NC(=O)[C@H](CCCNC(=N)N)NC(=O)[C@H](CS)NC(=O)[C@H](CC(C)C)NC(=O)[C@H](CCCCN)NC(=O)[C@H](CCCCN)NC(=O)[C@H](CC(C)C)NC(=O)[C@@H](NC(=O)[C@H](CCCNC(=N)N)NC(=O)[C@H](CS)NC(=O)[C@H](CC(C)C)NC(=O)[C@H](CCCCN)NC(=O)[C@H](CCCCN)NC(=O)[C@H](CC(C)C)NC(=O)[C@@H](NC(=O)[C@H](CCCNC(=N)N)NC(=O)[C@H](CS)NC(=O)[C@H](CC(C)C)NC(=O)[C@H](CCCCN)NC(=O)[C@H](CCCCN)NC(=O)[C@@H](N)CC(C)C)[C@@H](C)CC)[C@@H](C)CC)C(N)=O [LI21] (H-LKKLCRILKKLCRILKKLCRI-NH2; N-terminus and C-terminus assumed)
MIC (MRSA T144 [1]; T144): 64 µg/mL (≈ 24.8 µM)
MIC (MRSA T144 [1]; T144, 1 h): > 128 µg/mL
MIC (E. coli B2; B2): 32 µg/mL (≈ 12.4 µM)
MIC (E. coli B2; B2, 1 h): > 128 µg/mL
MIC (E. coli B2; E. coli B2, MgCl2 10 mM): 64 µg/mL (≈ 24.8 µM)
MIC ([2]; D120 (mcr-8)): 32 µg/mL (≈ 12.4 µM)
MIC ([3]; ATCC 700603): 64 µg/mL (≈ 24.8 µM)
MIC (E. faecium 5F-10; 5F-10): 64 µg/mL (≈ 24.8 µM)
MIC [4]: 32 µg/mL (≈ 12.4 µM)
MIC (E. faecalis 1F-1; 1F-1): 64 µg/mL (≈ 24.8 µM)
MIC ([5]; ATCC 13076): 32 µg/mL (≈ 12.4 µM)
MIC ([6]; A4 (VRE, VanA)): 32 µg/mL (≈ 12.4 µM)
MIC (S. aureus ATCC 29213; ATCC 29213): 32 µg/mL (≈ 12.4 µM)
MIC (MRSA T144 [7]; T144): 32 µg/mL (≈ 12.4 µM)
MIC (P. aeruginosa PA14; PA14): 32 µg/mL (≈ 12.4 µM)
MIC (E. coli CP131 (mcr-3); CP131 (mcr-3)): 16 µg/mL (≈ 6.2 µM)
MIC (E. coli G6 (blaNDM-5); G6 (blaNDM-5)): 16 µg/mL (≈ 6.2 µM)
MIC (E. coli G92 (mcr-1); G92 (mcr-1)): 32 µg/mL (≈ 12.4 µM)
MIC (E. coli 1F28 (tet(X4)); 1F28 (tet(X4))): 32 µg/mL (≈ 12.4 µM)
MIC (E. coli B3-1 (tet(X4)); B3-1 (tet(X4))): 32 µg/mL (≈ 12.4 µM)
MIC (E. coli C3 (blaNDM-1); C3 (blaNDM-1)): 32 µg/mL (≈ 12.4 µM)
MIC (MRSA 1518; 1518): 32 µg/mL (≈ 12.4 µM)
MIC (MRSA 1530; 1530): 32 µg/mL (≈ 12.4 µM)
MIC (A. baumannii ATCC 19609; ATCC 19609): 32 µg/mL (≈ 12.4 µM)
MIC ([8]; C222 (tet(X6))): 32 µg/mL (≈ 12.4 µM)
MIC (E. coli ATCC 25922; ATCC 25922): 64 µg/mL (≈ 24.8 µM)
MIC ([9]; B2 (blaNDM-5 + mcr-1)): 64 µg/mL

CC[C@H](C)[C@H](NC(=O)[C@H](CCCNC(=N)N)NC(=O)[C@@H]1CSSC[C@H](NC(=O)[C@H](CC(C)C)NC(=O)[C@H](CCCCN)NC(=O)[C@H](CCCCN)NC(=O)[C@@H](N)CC(C)C)C(=O)N[C@@H](CCCNC(=N)N)C(=O)N[C@@H]([C@@H](C)CC)C(=O)N[C@@H](CC(C)C)C(=O)N[C@@H](CCCCN)C(=O)N[C@@H](CCCCN)C(=O)N[C@@H](CC(C)C)C(=O)N1)C(N)=O [LI14 (S-S)] (H-LKKLCRILKKLCRI-NH2; disulfide 5-12 (inferred))
MIC (MRSA T144 [1]; T144): 4 µg/mL (≈ 2.32 µM)
Antibacterial activity of LI14 derivates (S. aureus ATCC 29213; S. aureus 29213, unit not given): 4
Antibacterial activity of LI14 derivates (MRSA T144 [7]; MRSA T144, unit not given): 4
Antibacterial activity of LI14 derivates (E. coli ATCC 25922; E. coli 25922, unit not given): 8
Antibacterial activity of LI14 derivates ([9]; E. coli B2, unit not given): 4

Colistin
MIC (E. coli DH5α (PUC19)): <0.125 µg/mL
MIC [10]: 2 µg/mL
MIC ([2]; K. pneumoniae D120 (mcr-8), MHB, 16-18 h, 37 °C): 4 µg/mL
MIC ([3]; K. pneumoniae ATCC 700603, MHB, 16-18 h, 37 °C): 1 µg/mL
FIC index (MDR E. coli B2; antibiotic in combination with LI14, checkerboard 8 × 8, 18 h, ≤0.5 = synergy): 2
MICa of antibiotic (MDR E. coli B2; in the absence of LI14): 8 µg/mL
MICb of antibiotic (MDR E. coli B2; in the presence of ¼ MIC of LI14): 8 µg/mL
MIC (E. faecium 5F-10; E. faecium 5F-10, MHB, 16-18 h, 37 °C): >64 µg/mL
MIC ([4]; P. cibarius HNCF44W (blaNDM-1 + tet(X6)), MHB, 16-18 h, 37 °C): >256 µg/mL
MIC (E. faecalis 1F-1; E. faecalis 1F-1, MHB, 16-18 h, 37 °C): >64 µg/mL
MIC ([5]; S. enteritidis ATCC 13076, MHB, 16-18 h, 37 °C): 0.25 µg/mL
MIC ([6]; E. faecalis A4 (VRE, VanA), MHB, 16-18 h, 37 °C): 64 µg/mL
MIC [11]: 16 µg/mL
MIC (S. aureus G16 (RIF^R)): 1 µg/mL
MIC (S. aureus ATCC 29213; S. aureus ATCC 29213, MHB, 16-18 h, 37 °C): 16 µg/mL
MIC (MRSA T144 [7]; MRSA T144, MHB, 16-18 h, 37 °C): 16 µg/mL
MIC (P. aeruginosa PA14; P. aeruginosa PA14, MHB, 16-18 h, 37 °C): 1 µg/mL
MIC (E. coli CP131 (mcr-3); E. coli CP131 (mcr-3), MHB, 16-18 h, 37 °C): 2 µg/mL
MIC (E. coli G6 (blaNDM-5); E. coli G6 (blaNDM-5), MHB, 16-18 h, 37 °C): 0.5 µg/mL
MIC (E. coli G92 (mcr-1); E. coli G92 (mcr-1), MHB, 16-18 h, 37 °C): 4 µg/mL
MIC (E. coli 1F28 (tet(X4)); E. coli 1F28 (tet(X4)), MHB, 16-18 h, 37 °C): 0.125 µg/mL
MIC (E. coli B3-1 (tet(X4)); E. coli B3-1 (tet(X4)), MHB, 16-18 h, 37 °C): 0.0625 µg/mL
MIC (E. coli C3 (blaNDM-1); E. coli C3 (blaNDM-1), MHB, 16-18 h, 37 °C): <0.125 µg/mL
MIC (MRSA 1518; MRSA 1518, MHB, 16-18 h, 37 °C): 16 µg/mL
MIC (MRSA 1530; MRSA 1530, MHB, 16-18 h, 37 °C): 16 µg/mL
MIC (A. baumannii ATCC 19609; A. baumannii ATCC 19609, MHB, 16-18 h, 37 °C): 0.125 µg/mL
MIC ([8]; A. baumannii C222 (tet(X6)), MHB, 16-18 h, 37 °C): <0.125 µg/mL
MIC (E. coli ATCC 25922; E. coli ATCC 25922, MHB, 16-18 h, 37 °C): 0.5 µg/mL
MIC ([9]; E. coli B2 (blaNDM-5 + mcr-1), MHB, 16-18 h, 37 °C): 8 µg/mL
